Experiment [1] relates to EGF receptor tyrosine kinase. The following applies: Fry et al., Science, 1994, 265, 1093; cited from earlier work.
Experiment [2] has as its system human vulval epidermoid carcinoma cell line A-431. The experiment is described as follows: Test (c): in vivo inhibition of growth of A-431 xenografts in athymic nude mice. Also noted: species or system human (xenograft in athymic nude mice). To be noted: Mus musculus, A-431, 312 h; usually oral, once daily, 13 days; approximately. The method, then: (c) An in-vivo assay in a group of athymic nude mice (strain ONU:Alpk) which determines the ability of a test compound (usually administered orally as a ball-milled suspension in 0.5% polysorbate) to inhibit the growth of xenografts of the human vulval epidermoid carcinoma cell line A-431.
A-431 cells were maintained in culture in DMEM supplemented with 5% FCS and 2 mM glutamine. Freshly cultured cells were harvested by trypsinization and injected subcutaneously (10 million cells/0.1 ml/mouse) into both flanks of a number of donor nude mice. When sufficient tumour material was available (after approximately 9 to 14 days), fragments of tumour tissue were transplanted in the flanks of recipient nude mice (test day 0). Generally, on the seventh day after transplantation (test day 7) groups of 7 to 10 mice with similar-sized tumours were selected and dosing of the test compound was commenced. Once daily dosing of test compound was continued for a total of 13 days (test days 7 to 19 inclusive). In some studies the dosing of the test compound was continued beyond test day 19, for example to test day 26. In each case, on the following test day the animals were killed and the final tumour volume was calculated from measurements of the length and width of the tumours. Results were calculated as a percentage inhibition of tumour volume relative to untreated controls.

The target in experiment [3] is T1, EGF receptor tyrosine kinase (Homo sapiens, UniProt P00533).
T1 construct: Receptor tyrosine kinase was obtained in partially purified form from A-431 cells; endogenous in cells; host or cells: A-431 cells (human vulval carcinoma); solubilised membrane fraction
Briefly: Test (a): in vitro assay of inhibition of the enzyme EGF receptor tyrosine kinase (32P peptide phosphorylation). It is filed as biochemical. Here is the method: (a) An in vitro assay which-determines the ability of a test compound to inhibit the enzyme EGF receptor tyrosine kinase.
A-431 cells were grown to confluence using Dulbecco's modified Eagle's medium (DMEM) containing 5% fetal calf serum (FCS). […] The homogenate was centrifuged at 400 g for 10 minutes at 0°-4° C. The supernatant was centrifuged at 25,000 g for 30 minutes at 0°-4° C. The pelleted material was suspended in 30 mM Hepes buffer at pH 7.4 containing 5% glycerol, 4 mM benzamidine and 1% Triton X-100, stirred for 1 hour at 0°-4° C., and recentrifuged at 100,000 g for 1 hour at 0°-4° C. The supernatant, containing solubilised receptor tyrosine kinase, was stored in liquid nitrogen.
There was thus obtained the test enzyme solution.
Equal volumes of this solution and a solution of epidermal growth factor (EGF; 20 μg/ml) were mixed.
[γ-^32 P]ATP (3000 Ci/mM, 250 μCi) was diluted to a volume of 2 ml by the addition of a solution of ATP (100 μM) in distilled water. An equal volume of a 4 mg/ml solution of the peptide […]in a mixture of 40 mM Hepes buffer at pH 7.4, 0.1% Triton X-100 and 10% glycerol was added.
The test compound/EGF mixture solution (5 μl) was added to the test enzyme solution (10 μl) and the mixture was incubated at 0°-4° C. for 30 minutes. The ATP/peptide mixture (10 μl) was added and the mixture was incubated at 25° C. for 10 minutes. The phosphorylation reaction was terminated by the addition of 5% trichloroacetic acid (40 μl ) and bovine serum albumin (BSA; 1 mg/ml, 5 μl). The mixture was allowed to stand at 4° C. for 30 minutes and then centrifuged. An aliquot (40 μl) of the supernatant was placed onto a strip of Whatman p 81 phosphocellulose paper. The strip was washed in 75 mM phosphoric acid (4×10 ml) and blotted dry. Radioactivity present in the filter paper was measured using a liquid scintillation counter (Sequence A). The reaction sequence was repeated in the absence of the EGF (Sequence B) and again in the absence of the test compound (Sequence C).

For experiment [4], the system named is human naso-pharyngeal cancer cell line KB. Briefly: cells. It is filed as cell-based. The following applies: 72 h, values stated as approximate, EGF 10 ng/ml, 3 days, read-out: Test (b) IC50. The method, then: (b) An in vitro assay which determines the ability of a test compound to inhibit the EGF-stimulated growth of the human naso-pharyngeal cancer cell line KB.
Cell growth was determined after incubation for 3 days by the extent of metabolism of MTT tetrazolium dye to furnish a bluish colour. Cell growth was then determined in the presence of EGF (10 ng/ml) or in the presence of EGF (10 ng/ml) and a test compound at a range of concentrations. An IC50 value could then be calculated.

The test system of experiment [5] is another carcinoma which does not express EGF receptor tyrosine kinase. To be noted: Toi et al., 1990; cited from earlier work.
[6] abbreviates: values stated as approximate, EGF receptor tyrosine kinase from A-431 cells.

Where two headings read alike, the source gives them in different places.

T1 sequence (P00533 25-1210): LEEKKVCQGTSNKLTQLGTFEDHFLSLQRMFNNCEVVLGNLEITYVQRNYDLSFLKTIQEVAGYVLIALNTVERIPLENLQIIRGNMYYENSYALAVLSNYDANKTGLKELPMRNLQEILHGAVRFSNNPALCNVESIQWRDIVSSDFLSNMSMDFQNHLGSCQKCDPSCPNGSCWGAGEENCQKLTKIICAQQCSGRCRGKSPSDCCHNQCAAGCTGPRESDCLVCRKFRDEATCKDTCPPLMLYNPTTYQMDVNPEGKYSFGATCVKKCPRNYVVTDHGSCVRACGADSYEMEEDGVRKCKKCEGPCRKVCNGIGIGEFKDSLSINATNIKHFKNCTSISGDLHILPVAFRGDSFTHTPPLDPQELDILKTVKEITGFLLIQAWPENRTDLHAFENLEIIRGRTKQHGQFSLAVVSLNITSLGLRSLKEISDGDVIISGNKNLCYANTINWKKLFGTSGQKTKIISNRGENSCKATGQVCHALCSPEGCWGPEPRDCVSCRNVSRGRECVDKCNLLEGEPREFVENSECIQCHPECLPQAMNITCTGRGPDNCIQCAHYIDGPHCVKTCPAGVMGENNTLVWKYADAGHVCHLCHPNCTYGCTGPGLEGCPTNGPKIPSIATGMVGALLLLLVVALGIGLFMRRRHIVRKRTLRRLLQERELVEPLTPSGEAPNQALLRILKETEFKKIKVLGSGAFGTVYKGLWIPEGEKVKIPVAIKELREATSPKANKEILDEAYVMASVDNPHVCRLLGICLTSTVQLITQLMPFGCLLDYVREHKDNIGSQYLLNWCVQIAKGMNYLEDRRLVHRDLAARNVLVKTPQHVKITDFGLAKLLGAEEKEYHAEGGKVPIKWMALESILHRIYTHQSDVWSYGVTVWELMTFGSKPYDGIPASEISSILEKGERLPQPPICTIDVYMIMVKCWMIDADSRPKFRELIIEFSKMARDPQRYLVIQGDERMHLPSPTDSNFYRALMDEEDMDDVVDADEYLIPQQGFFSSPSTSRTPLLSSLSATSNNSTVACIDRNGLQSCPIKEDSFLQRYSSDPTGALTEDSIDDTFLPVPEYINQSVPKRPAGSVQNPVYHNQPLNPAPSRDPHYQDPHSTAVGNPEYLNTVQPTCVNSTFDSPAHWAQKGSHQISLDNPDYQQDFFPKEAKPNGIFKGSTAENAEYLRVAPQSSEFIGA

Consider `COc1cc2ncnc(Nc3cccc(Br)c3)c2cc1OC` [4-(3'-bromoanilino)-6,7-dimethoxyquinazoline], for which the “inhibition of EGF receptor tyrosine kinase” value in experiment [1] is recorded as “highly potent inhibitor of EGF receptor tyrosine kinase”.

Take `COc1cc2ncnc(Nc3ccc(F)c(Cl)c3)c2cc1OCCCN1CCOCC1` [Example 1, 4-(3'-chloro-4'-fluoroanilino)-7-methoxy-6-(3-morpholinopropoxy)quinazoline]: the ED50 in experiment [2] was ~12.5 mg/kg.

For the compound `COc1cc2ncnc(Nc3ccc(F)c(Cl)c3)c2cc1OCCN1CCOCC1` [Example 3, 4-(3'-chloro-4'-fluoroanilino)-7-methoxy-6-(2-morpholinoethoxy)quinazoline], the IC50 in experiment [3] (setting [6]) was determined as 10 nM; in experiment [4], 400 nM.

With `COc1cc2ncnc(Nc3ccc(F)c(Cl)c3)c2cc1OCCN1CCN(C)CC1` [Example 4, 4-(3'-chloro-4'-fluoroanilino)-7-methoxy-6-[2-(4-methylpiperazin-1-yl)ethoxy]quinazoline], the IC50 in experiment [3] came out at 10 nM; in experiment [4], 100 nM.

As for `COCCN(CCOC)CCOc1cc2c(Nc3ccc(F)c(Cl)c3)ncnc2cc1OC` [Example 5, 4-(3'-chloro-4'-fluoroanilino)-7-methoxy-6-{2-[di-(2-methoxyethyl)amino]ethoxy}quinazoline], the IC50 in experiment [3] (setting [6]) came out at 60 nM; in experiment [4] it was 200 nM.

Consider `COc1cc2ncnc(Nc3ccc(F)c(Cl)c3)c2cc1OCCN(C)C` [Example 6, 4-(3'-chloro-4'-fluoroanilino)-6-(2-dimethylaminoethoxy)-7-methoxyquinazoline], for which the IC50 was 10 nM in experiment [3] (setting [6]) and 100 nM in experiment [4].

`CCN(CC)CCOc1cc2c(Nc3ccc(F)c(Cl)c3)ncnc2cc1OC` [Example 7, 4-(3'-chloro-4'-fluoroanilino)-6-(2-diethylaminoethoxy)-7-methoxyquinazoline]: the figures for the IC50 in experiment [3] (setting [6]) and in experiment [4] were 90 nM and 300 nM, respectively.

With `COc1cc2ncnc(Nc3ccc(F)cc3F)c2cc1OCCCN(C)C` [Example 8, 4-(2',4'-difluoroanilino)-6-(3-dimethylaminopropoxy)-7-methoxyquinazoline], the IC50 came to 480 nM in experiment [3] (setting [6]) and 900 nM in experiment [4].

With `COc1cc2ncnc(Nc3ccc(F)c(Cl)c3)c2cc1OCC(O)CN1CCOCC1` (stereo not shown) [Example 9, 4-(3'-chloro-4'-fluoroanilino)-6-(2-hydroxy-3-morpholinopropoxy)-7-methoxyquinazoline], the half-maximal inhibitory concentration (IC50) in experiment [3] (setting [6]) worked out at 10 nM; in experiment [4], 100 nM.

As for `COc1cc2ncnc(Nc3ccc(F)cc3F)c2cc1OCCCN1CCOCC1` [Example 14, 4-(2',4'-difluoroanilino)-7-methoxy-6-(3-morpholinopropoxy)quinazoline], the IC50 was 670 nM in experiment [3] (setting [6]) and 300 nM in experiment [4].

With `COc1cc2ncnc(Nc3ccc(F)c(F)c3)c2cc1OCCCN(C)C` [Example 18, 4-(3',4'-difluoroanilino)-6-(3-dimethylaminopropoxy)-7-methoxyquinazoline], the results for the IC50 in experiment [3] (setting [6]) and in experiment [4] were 270 nM and 390 nM, respectively.

As to `COc1cc2ncnc(Nc3ccc(F)c(F)c3)c2cc1OCCCN1CCOCC1` [Example 19, 4-(3',4'-difluoroanilino)-7-methoxy-6-(3-morpholinopropoxy)quinazoline], the IC50 is 520 nM in experiment [3] (setting [6]) and 450 nM in experiment [4].

As to `CCN(CC)CCCOc1cc2c(Nc3ccc(F)c(F)c3)ncnc2cc1OC` [Example 20, 6-(3-diethylaminopropoxy)-4-(3',4'-difluoroanilino)-7-methoxyquinazoline], the IC50 in experiment [3] (setting [6]) stood at 670 nM; in experiment [4] it was 550 nM.

As for `O=CN/C=C/c1cc(O)ccc1O` [erbstatin], in experiment [5], the “growth of another carcinoma not expressing EGF receptor tyrosine kinase” value is “without effect on the growth”.

The values are drawn from patent publication US5770599A, “Quinazoline derivatives” (Zeneca Limited, priority 1995, dated 1998).
